Values quoted from earlier work as cited in patent publication US20220118118A1, “BENZAZEPIN-L,7-DIOL-DERIVED RADIOLABELED LIGANDS WITH HIGH IN VIVO NMDA SPECIFICITY” (ETH ZURICH, priority 2018, published 2022).

Details: Garrigou-Cadenne et al. 1995

brain/plasma ratio: about 20
Compound: OC(CN1CCC(Cc2ccc(F)cc2)CC1)c1ccc(Cl)cc1 (stereo not shown) [eliprodil]
